According to the CheMixHub viscosity set:

Assay: xn = mol fraction of the nth substance listed

O=[N+]([O-])c1ccc(O)cc1 + CCN(CC)CC
298.16 K, 101 kPa
Conditions	viscosity [mPa·s]
x1 = 0.5818	294.3
x1 = 0.5939	366.2
x1 = 0.6179	606.8
x1 = 0.6393	908.7
x1 = 0.6718	2449
x1 = 0.6969	3733
x1 = 0.7221	6669
x1 = 0.739	7410
x1 = 0.7731	8242
x1 = 0.7883	7522
x1 = 0.8008	6867
x1 = 0.8106	6269

CCC(=O)OCCN1CCNCC1 + CCO
Conditions	viscosity [mPa·s]
293.15 K, 100 kPa, x1 = 0.1216	37.45

CCCC(=O)OCC(COC(=O)CCC)OC(=O)CCC + CCO
viscosity [mPa·s], 101.33 kPa
Conditions	x1 = 0.1	x1 = 0.2	x1 = 0.3	x1 = 0.4	x1 = 0.5	x1 = 0.6	x1 = 0.7	x1 = 0.8	x1 = 0.9
298 K	1.59	2.22	2.92	3.63	4.38	5.15	5.97	6.78	7.71
303 K	1.44	1.98	2.58	3.19	3.81	4.48	5.14	5.82	6.58
308 K	1.31	1.78	2.29	2.81	3.35	3.91	4.48	5.04	5.67
313 K	1.21	1.61	2.06	2.51	2.97	3.43	3.92	4.4	4.92

CCCCN + CCO
viscosity [mPa·s]
Conditions	298.15 K	303.15 K	313.15 K
100 kPa, x2 = 0.102	0.514	–	–
100 kPa, x2 = 0.15	0.542	–	–
100 kPa, x2 = 0.295	0.626	–	–
100 kPa, x2 = 0.449	0.749	–	–
100 kPa, x2 = 0.501	0.791	–	–
100 kPa, x2 = 0.595	0.872	–	–
100 kPa, x2 = 0.68	0.931	–	–
100 kPa, x2 = 0.752	0.977	–	–
100 kPa, x2 = 0.897	1.051	–	–
101.33 kPa, x1 = 0.1093	–	0.9614	0.7843
101.33 kPa, x1 = 0.1943	–	0.9273	0.747
101.33 kPa, x1 = 0.2825	–	0.8774	0.7048
101.33 kPa, x1 = 0.4151	–	0.7915	0.6383
101.33 kPa, x1 = 0.5136	–	0.7146	0.5888
101.33 kPa, x1 = 0.6128	–	0.6369	0.5355
101.33 kPa, x1 = 0.7066	–	0.5687	0.4844
101.33 kPa, x1 = 0.8039	–	0.5095	0.4428
101.33 kPa, x1 = 0.894	–	0.4717	0.4132

CC[N+](=O)[O-] + CCO
viscosity [mPa·s], 101.33 kPa
Conditions	293.15 K	303.15 K	313.15 K
x2 = 0.05	0.669	0.598	0.538
x2 = 0.1001	0.655	0.584	0.526
x2 = 0.15	0.648	0.576	0.519
x2 = 0.2	0.645	0.573	0.512
x2 = 0.25	0.65	0.57	0.507
x2 = 0.3	0.651	0.571	0.506
x2 = 0.35	0.658	0.575	0.509
x2 = 0.4	0.668	0.583	0.513
x2 = 0.45	0.681	0.593	0.519
x2 = 0.5	0.697	0.603	0.528
x2 = 0.55	0.716	0.618	0.538
x2 = 0.6	0.738	0.636	0.55
x2 = 0.65	0.769	0.656	0.567
x2 = 0.7	0.804	0.682	0.586
x2 = 0.7499	0.839	0.712	0.608
x2 = 0.8	0.886	0.748	0.637
x2 = 0.8499	0.944	0.793	0.672
x2 = 0.9	1.015	0.847	0.715
x2 = 0.9499	1.103	0.914	0.77

Cc1ccncc1 + CCO
298.15 K, 101.33 kPa
Conditions	viscosity [mPa·s]
x2 = 0.119	0.878
x2 = 0.2179	0.8832
x2 = 0.3335	0.8963
x2 = 0.426	0.9084
x2 = 0.5813	0.9345
x2 = 0.7893	0.9902
x2 = 0.8494	1.015
x2 = 0.9031	1.041

O=C(O)C(Cl)(Cl)Cl + CCOC(=O)c1ccccc1
298.15 K, 101 kPa
Conditions	viscosity [mPa·s]
x1 = 0.08874	2.324
x1 = 0.2096	2.93
x1 = 0.3125	3.711
x1 = 0.3982	4.61
x1 = 0.4907	5.848
x1 = 0.5795	7.068
x1 = 0.6758	8.374

CCCCN + CCOC(C)=O
303.15 K, 101 kPa
Conditions	viscosity [mPa·s]
x1 = 0.1573	0.4484
x1 = 0.2361	0.4671
x1 = 0.312	0.4741
x1 = 0.4217	0.4759
x1 = 0.5671	0.476
x1 = 0.6505	0.4772
x1 = 0.7907	0.4779
x1 = 0.8803	0.4928

O=C(O)C(Cl)(Cl)Cl + CCOC(C)=O
298.15 K, 101 kPa
Conditions	viscosity [mPa·s]
x1 = 0.1118	0.5878
x1 = 0.184	0.7309
x1 = 0.2807	1.001
x1 = 0.3846	1.449
x1 = 0.4878	2.176
x1 = 0.6142	3.467
x1 = 0.7008	4.709

CCCCN + CCOCCO
308.15 K, 101 kPa
Conditions	viscosity [mPa·s]
x2 = 0.0802	0.5335
x2 = 0.2044	0.6473
x2 = 0.3059	0.7671
x2 = 0.4065	0.8896
x2 = 0.5068	1.007
x2 = 0.6065	1.115
x2 = 0.7058	1.209
x2 = 0.9024	1.376

CCCCN + CO
viscosity [mPa·s]
Conditions	298.15 K	303.15 K	313.15 K	323.15 K
100 kPa, x2 = 0.1	0.505	–	–	–
100 kPa, x2 = 0.203	0.552	–	–	–
100 kPa, x2 = 0.299	0.599	–	–	–
100 kPa, x2 = 0.399	0.653	–	–	–
100 kPa, x2 = 0.501	0.707	–	–	–
100 kPa, x2 = 0.598	0.747	–	–	–
100 kPa, x2 = 0.697	0.761	–	–	–
100 kPa, x2 = 0.796	0.732	–	–	–
100 kPa, x2 = 0.9	0.65	–	–	–
101 kPa, x2 = 0.1159	–	0.47	0.409	0.357
101 kPa, x2 = 0.2309	–	0.494	0.425	0.369
101 kPa, x2 = 0.3289	–	0.518	0.439	0.377
101 kPa, x2 = 0.426	–	0.549	0.458	0.386
101 kPa, x2 = 0.5325	–	0.584	0.482	0.397
101 kPa, x2 = 0.6186	–	0.607	0.498	0.405
101 kPa, x2 = 0.7296	–	0.617	0.508	0.411
101 kPa, x2 = 0.8167	–	0.602	0.502	0.41
101 kPa, x2 = 0.9076	–	0.562	0.481	0.408

CC[N+](=O)[O-] + CO
viscosity [mPa·s], 101.33 kPa
Conditions	293.15 K	303.15 K	313.15 K
x2 = 0.0501	0.657	0.586	0.527
x2 = 0.0999	0.634	0.565	0.508
x2 = 0.1503	0.617	0.549	0.493
x2 = 0.2	0.603	0.536	0.48
x2 = 0.25	0.593	0.526	0.471
x2 = 0.3	0.584	0.517	0.462
x2 = 0.3501	0.576	0.51	0.455
x2 = 0.4	0.57	0.504	0.448
x2 = 0.45	0.564	0.498	0.442
x2 = 0.5	0.559	0.493	0.438
x2 = 0.55	0.556	0.489	0.433
x2 = 0.6	0.553	0.487	0.43
x2 = 0.65	0.552	0.485	0.428
x2 = 0.6999	0.552	0.486	0.428
x2 = 0.75	0.555	0.486	0.427
x2 = 0.8	0.558	0.487	0.428
x2 = 0.85	0.562	0.49	0.43
x2 = 0.9	0.567	0.495	0.434
x2 = 0.95	0.576	0.501	0.437

CCn1ccnc1 + CO
viscosity [mPa·s], 101 kPa
Conditions	298.15 K	308.15 K	318.15 K
x1 = 0.0461	0.654	0.5768	0.5141
x1 = 0.1003	0.7495	0.6547	0.5802
x1 = 0.2389	1.012	0.8673	0.7489
x1 = 0.3039	1.133	0.967	0.8304
x1 = 0.3938	1.285	1.085	0.9324
x1 = 0.4588	1.383	1.163	0.9927
x1 = 0.5724	1.525	1.275	1.085
x1 = 0.7001	1.669	1.388	1.177
x1 = 0.794	1.766	1.467	1.24
x1 = 0.8988	1.861	1.536	1.296
x1 = 0.9431	1.89	1.56	1.316

Cc1ccncc1 + CO
298.15 K, 101.33 kPa
Conditions	viscosity [mPa·s]
x2 = 0.1671	0.8666
x2 = 0.3035	0.8547
x2 = 0.4194	0.8291
x2 = 0.5171	0.8161
x2 = 0.6328	0.7764
x2 = 0.7977	0.7033
x2 = 0.8892	0.6526
x2 = 0.967	0.5799

c1cc2c3c(cccc3c1)CC2 + CO
viscosity [mPa·s], 101.33 kPa
Conditions	298.15 K	303.15 K	308.15 K	313.15 K	318.15 K
x1 = 0.00465	0.5715	0.5301	0.494	0.4598	0.436
x1 = 0.0072	–	0.5362	0.5036	0.4714	0.4405

CCCCN + COC(C)=O
303.15 K, 101 kPa
Conditions	viscosity [mPa·s]
x1 = 0.1441	0.4159
x1 = 0.2526	0.4351
x1 = 0.35	0.4469
x1 = 0.454	0.4552
x1 = 0.5721	0.458
x1 = 0.686	0.4596
x1 = 0.7578	0.4709
x1 = 0.8757	0.4985

CCCCN + COCCO
308.15 K, 101 kPa
Conditions	viscosity [mPa·s]
x2 = 0.1234	0.5285
x2 = 0.2404	0.6274
x2 = 0.3516	0.7219
x2 = 0.4576	0.8199
x2 = 0.5606	0.9142
x2 = 0.6503	0.9868
x2 = 0.7471	1.048
x2 = 0.8351	1.111
x2 = 0.9193	1.173

CN + CS(C)=O
303.15 K, 101 kPa
Conditions	viscosity [mPa·s]
x2 = 0.0607	1.738
x2 = 0.12	1.823
x2 = 0.2348	1.891
x2 = 0.4501	2.172
x2 = 0.6481	2.077
x2 = 0.8308	1.895

O=C(O)C(Cl)(Cl)Cl + C[N+](C)(C)CCO.[Cl-]
101 kPa, x2 = 0.333
Conditions	viscosity [mPa·s]
293.15 K	645.9
298.15 K	435
303.15 K	302.5
308.15 K	216.1
313.15 K	158.7
318.15 K	119.2
323.15 K	91.41
